The source of these data is patent US10138230B2, “Autotaxin inhibitors” (CANCER RESEARCH TECHNOLOGY LIMITED, priority 2015, dated 2018).

Structures can show the parent of a compound that is named as a salt.

This assay deals with human recombinant ATX (Homo sapiens (Human), UniProt Q13822). Kind of assay: Autotaxin (ATX) activity Quanta Red assay. The format is biochemical. Conditions: 15 μM Rac-1-Palmitoyl-glycero-3-phosphocholine, 2 hours room temperature, determined in duplicate. The method in brief:
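Choline released from 15 μM LPC substrate by 0.8 μg/mL recombinant human ATX (pH 8.0 Tris, CaCl2, 4% DMSO, 2 h, RT) was detected by coupled Quanta Red fluorescence.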
On to `O=C(Nc1nnc(SCc2ccc(F)cc2)s1)C1CC(=O)N(c2ccc(CN3CCOCC3)cc2)C1` (centres unmarked) [Compound F154, 1-(4-morpholin-4-ylmethyl-phenyl)-5-oxo-pyrrolidine-3-carboxylic acid [5-(4-fluoro-benzylsulfanyl)-[1,3,4]thiadiazol-2-yl]-amide], for which the IC50 worked out at 0.003 µM.
With `CN(Cc1ccc(N2C[C@@H](C(=O)Nc3ccc(CCc4ccc(F)cc4)nn3)CC2=O)cc1)C1COC1` [Compound F155, (3S)-N-[6-[2-(4-fluorophenyl)ethyl]pyridazin-3-yl]-1-[4-[[methyl(oxetan-3-yl)amino]methyl]phenyl]-5-oxo-pyrrolidine-3-carboxamide] the figure was 0.011 µM; with `O=C(Nc1nnc(CCc2ccc(Cl)cc2)s1)C1CC(=O)N(c2ccc(CN3CCCNCC3)cc2)C1` (centres unmarked) [Compound F156, 1-(4-[1,4]Diazepan-1-ylmethyl-phenyl)-5-oxo-pyrrolidine-3-carboxylic acid {5-[2-(4-chloro-phenyl)-ethyl]-[1,3,4]thiadiazol-2-yl}-amide; dihydrochloride], 0.014 µM; with `CC(C)(C)OC(=O)N1CCN(Cc2ccc(N3CC(C(=O)Nc4nnc(CCc5ccc(Cl)cc5)s4)CC3=O)cc2)CC1` (centres unmarked) [Compound F157, tert-butyl 4-[[4-[4-[[5-[2-(4-chlorophenyl)ethyl]-1,3,4-thiadiazol-2-yl]carbamoyl]-2-oxo-pyrrolidin-1-yl]phenyl]methyl] piperazine-1-carboxylate], 0.015 µM.
With `O=C(Nc1cc(CCc2ccccc2)on1)C1CC(=O)N(c2ccc(CN3CCOCC3)cc2)C1` (centres unmarked) [Compound F158, 1-[4-(morpholinomethyl)phenyl]-5-oxo-N-[5-(2-phenylethyl)isoxazol-3-yl]pyrrolidine-3-carboxamide] the figure was 0.017 µM; with `CC(C)N(C)Cc1ccc(N2CC(C(=O)Nc3nnc(CCc4ccc(Cl)cc4)s3)CC2=O)cc1` (centres unmarked) [Compound F159, N-[5-[2-(4-chlorophenyl)ethyl]-1,3,4-thiadiazol-2-yl]-1-[4-[[isopropyl (methyl)amino]methyl]phenyl]-5-oxo-pyrrolidine-3-carboxamide], 0.018 µM; with `O=C(Nc1nnc(CCc2ccc(Cl)cc2)s1)C1CC(=O)N(c2ccc(CN3CCNCC3)cc2)C1` (centres unmarked) [Compound F160, 5-Oxo-1-(4-piperazin-1-ylmethyl-phenyl)-pyrrolidine-3-carboxylic acid {5-[2-(4-chloro-phenyl)-ethyl]-[1,3,4]thiadiazol-2-yl}-amide; dihydrochloride], 0.024 µM.
The value for `O=C(Nc1nnc(CCc2ccc(Cl)cc2)s1)[C@@H]1CC(=O)N(c2ccc(CN3CCOCC3)cc2)C1` [Compound F161, (3R)-N-[5-[2-(4-chlorophenyl)ethyl]-1,3,4-thiadiazol-2-yl]-1-[4-(morpholinomethyl)phenyl]-5-oxo-pyrrolidine-3-carboxamide] was 0.037 µM; that for `O=C(Nc1ccc(CCc2ccccc2)nn1)C1CC(=O)N(c2ccc(CN3CCOCC3)cc2)C1` (centres unmarked) [Compound F162, 1-[4-(morpholinomethyl)phenyl]-5-oxo-N-[6-(2-phenylethyl)pyridazin-3-yl]pyrrolidine-3-carboxamide] was 0.037 µM; that for `O=C(Nc1nnc(CCc2ccc(Cl)cc2)s1)[C@@H]1CC(=O)N(c2ccc(CN3CCCCC3)cc2)C1` [Compound F163, (3R)-N-[5-[2-(4-chlorophenyl)ethyl]-1,3,4-thiadiazol-2-yl]-5-oxo-1-[4-(1-piperidylmethyl)phenyl] pyrrolidine-3-carboxamide] was 0.049 µM.
Take `O=C(Nc1nnc(CCC2CCCCO2)s1)[C@H]1CC(=O)N(c2ccc(CN3CCCCC3)cc2)C1` (stereo partly drawn) [Compound F164, (3S)-5-oxo-1-[4-(1-piperidylmethyl)phenyl]-N-[5-(2-tetrahydropyran-2-ylethyl)-1,3,4-thiadiazol-2-yl]pyrrolidine-3-carboxamide]: the IC50 was 0.07 µM.
The value for `O=C(Nc1nnc(CCC2CCCCO2)s1)[C@H]1CC(=O)N(c2ccc(CN3CCOCC3)cc2)C1` (stereo partly drawn) [Compound F165, (3S)-1-[4-(morpholinomethyl)phenyl]-5-oxo-N-[5-(2-tetrahydropyran-2-ylethyl)-1,3,4-thiadiazol-2-yl]pyrrolidine-3-carboxamide] was 0.095 µM; that for `O=C(Nc1nnc(CCC2CCCC2)s1)C1CC(=O)N(c2ccc(CN3CCCCC3)cc2)C1` (centres unmarked) [Compound F166, N-[5-(2-cyclopentylethyl)-1,3,4-thiadiazol-2-yl]-5-oxo-1-[4-(1-piperidylmethyl)phenyl] pyrrolidine-3-carboxamide] was 0.016 µM.
On to `O=C(N[C@H]1CCN(c2ccc(CN3CCOCC3)cc2)C1)c1nnc(CCc2ccc(Cl)cc2)s1` [Compound F167, 5-[2-(4-Chloro-phenyl)-ethyl]-[1,3,4]thiadiazole-2-carboxylic acid [(S)-1-(4-morpholin-4-ylmethyl-phenyl)-pyrrolidin-3-yl]-amide], for which the IC50 was 0.016 µM.
The value for `O=C(NC1CC(=O)N(c2ccc(CN3CCCCC3)cc2)C1)c1nnc(CCc2ccc(F)cc2)s1` (centres unmarked) [Compound F168, 5-[2-(4-fluorophenyl)ethyl]-N-[5-oxo-1-[4-(1-piperidylmethyl)phenyl]pyrrolidin-3-yl]-1,3,4-thiadiazole-2-carboxamide] was 0.017 µM; that for `CC1(O)CCN(Cc2ccc(N3C[C@H](NC(=O)c4nnc(CCc5ccc(Cl)cc5)s4)CC3=O)cc2)CC1` [Compound F169, 5-[2-(4-chlorophenyl)ethyl]-N-[(3R)-1-[4-[(4-hydroxy-4-methyl-1-piperidyl)methyl]phenyl]-5-oxo-pyrrolidin-3-yl]-1,3,4-thiadiazole-2-carboxamide] was 0.022 µM.
Take `CC(C)(O)CCNCc1ccc(N2C[C@H](NC(=O)c3nnc(CCc4ccc(Cl)cc4)s3)CC2=O)cc1` [Compound F170, 5-[2-(4-chlorophenyl)ethyl]-N-[(3R)-1-[4-[[(3-hydroxy-3-methyl-butyl)amino]methyl]phenyl]-5-oxo-pyrrolidin-3-yl]-1,3,4-thiadiazole-2-carboxamide hydrochloride]: the IC50 stood at 0.058 µM.
With `CN(CCC(C)(C)O)Cc1ccc(N2C[C@H](NC(=O)c3nnc(CCc4ccc(Cl)cc4)s3)CC2=O)cc1` [Compound F171, 5-[2-(4-chlorophenyl)ethyl]-N-[(3R)-1-[4-[[(3-hydroxy-3-methyl-butyl)-methyl-amino]methyl]phenyl]-5-oxo-pyrrolidin-3-yl]-1,3,4-thiadiazole-2-carboxamide], the IC50 was determined as 0.058 µM.
The value for `O=C(NC1CC(=O)N(c2ccc(CN3CCCCC3)cc2)C1)c1nnc(CCc2ccccc2)s1` (centres unmarked) [Compound F172, N-[5-oxo-1-[4-(1-piperidylmethyl)phenyl]pyrrolidin-3-yl]-5-(2-phenylethyl)-1,3,4-thiadiazole-2-carboxamide] was 0.076 µM; that for `O=C(N[C@@H]1CC(=O)N(c2ccc(CN3CCCCC3)cc2)C1)c1cc(CCc2ccc(F)cc2)on1` [Compound F173, 5-[2-(4-fluorophenyl)ethyl]-N-[(3R)-5-oxo-1-[4-(1-piperidylmethyl)phenyl]pyrrolidin-3-yl]isoxazole-3-carboxamide] was 0.024 µM.
As for `O=C(N[C@H]1CC(=O)N(c2ccc(CN3CCCCC3)cc2)C1)c1cc(CCc2ccc(F)cc2)on1` [Compound F174, 5-[2-(4-fluorophenyl)ethyl]-N-[(3S)-5-oxo-1-[4-(1-piperidylmethyl)phenyl]pyrrolidin-3-yl]isoxazole-3-carboxamide], the IC50 came out at 0.033 µM.
For `O=C(NC1CC(=O)N(c2ccc(CN3CCCCC3)cc2)C1)c1cc(CCc2ccccc2)on1` (centres unmarked) [Compound F175, N-[5-oxo-1-[4-(1-piperidylmethyl)phenyl]pyrrolidin-3-yl]-5-(2-phenylethyl)isoxazole-3-carboxamide], the IC50 came out at 0.047 µM.
The value for `O=C(Nc1nnc(CCc2ccccc2)s1)C1CC(=O)N(c2ccc(CN3CCOCC3)cc2)C1` (centres unmarked) [Compound F176, 1-[4-(morpholinomethyl)phenyl]-5-oxo-N-[5-(2-phenylethyl)-1,3,4-thiadiazol-2-yl]pyrrolidine-3-carboxamide] was 0.011 µM; that for `CN(C)Cc1ccc(N2CC(C(=O)Nc3nnc(CCc4ccc(Cl)cc4)s3)CC2=O)cc1` (centres unmarked) [Compound F177, N-[5-[2-(4-chlorophenyl)ethyl]-1,3,4-thiadiazol-2-yl]-1-[4-[(dimethylamino)methyl]phenyl]-5-oxo-pyrrolidine-3-carboxamide] was 0.029 µM; that for `O=C(Nc1ccc(CCc2ccc(F)cc2)nn1)[C@H]1CC(=O)N(c2ccc(CN3CCCCC3)cc2)C1` [Compound F178, (3S)-N-[6-[2-(4-fluorophenyl)ethyl]pyridazin-3-yl]-5-oxo-1-[4-(1-piperidylmethyl)phenyl] pyrrolidine-3-carboxamide] was 0.03 µM.
With `O=C(Nc1cc(CCc2ccccc2)[nH]n1)C1CC(=O)N(c2ccc(CN3CCOCC3)cc2)C1` (centres unmarked) [Compound F179, 1-[4-(morpholinomethyl)phenyl]-5-oxo-N-[5-(2-phenylethyl)-1H-pyrazol-3-yl]pyrrolidine-3-carboxamide], the IC50 is 0.038 µM.
For the compound `O=C(Nc1ccc(CCc2ccc(F)cc2)nn1)[C@H]1CC(=O)N(c2ccc(CN3CCOCC3)cc2)C1` [Compound F180, (3S)—N-[6-[2-(4-fluorophenyl)ethyl]pyridazin-3-yl]-1-[4-(morpholinomethyl)phenyl]-5-oxo-pyrrolidine-3-carboxamide hydrochloride], the IC50 was determined as 0.011 µM.
Regarding `CCC(C)CCc1nnc(NC(=O)C2CC(=O)N(c3ccc(CN4CCCCC4)cc3)C2)s1` (centres unmarked) [Compound F182, 5-oxo-1-(4-piperidin-1-ylmethyl-phenyl)-pyrrolidine-3-carboxylic acid [5-(3-methyl-pentyl)-[1,3,4]thiadiazol-2-yl]-amide; hydrochloride], the IC50 stood at 0.021 µM.
With `O=C1CC(NCc2nnc(CCc3ccc(Cl)cc3)s2)CN1c1ccc(CN2CCOCC2)cc1` (centres unmarked) [Compound F183, 4-({5-[2-(4-Chloro-phenyl)-ethyl]-[1,3,4]thiadiazol-2-ylmethyl}-amino)-1-(4-morpholin-4-ylmethyl-phenyl)-pyrrolidin-2-one; hydrochloride] the figure was 0.023 µM.

What is called IC50 is the concentration that gives 50% inhibition.
